Test results as given in patent publication US20110288123A1, “FORMULATIONS FOR THE TREATMENT OF ACUTE HERPES ZOSTER PAIN” (priority 2008, published 2011).

How the values were obtained:
[1] = Stinging test (VAS) on tape-stripped forearm skin of subjects; assay type: in vivo, human; details: for Subjective Stinging Score, mean: 100 mm VAS, n=10, abraded skin
From the text: Topical formulations, particularly those that are to be applied to diseased or damaged skin (e.g. cracks, fissures, open blisters, rash, and the like) may produce the sensory perception of stinging, a distinct discomfort to the user. A stinging test can be used to assess whether the novel topical formulations described herein produce a sensory perception of stinging.
For example, the study is designed to assess the sting potential of four topical formulations using a modification of a lactic acid sting assessment method. The test formulations are evaluated on skin that has been partially damaged (e.g. partial removal of the stratum corneum by tape stripping) to simulate diseased skin. Both a positive control (70% isopropyl alcohol) and a negative control (water) can be included to ascertain each subject's ability to sense the stinging sensation.
After providing informed consent, each subject receives a single dose exposure of 5 μL/cm^2 (40 μL/site) of a test formulation to an 8 cm^2 (2 cm×4 cm) surface abraded test site on their forearms (3 sites/arm), for a 10 minute duration. Skin abrasion is produced by repetitive tape stripping until a TEWL (Trans-Epidermal Water-Loss) measurement of 30 g/m^2/hr, or greater, has been achieved (e.g. tape stripping will be performed 15 times followed by a TEWL measurement. If the TEWL is <30 g/m^2/hr, 10 more strips will be collected, if TEWL is still <30 g/m^2/hr, 10 more tape strip will be collected).
Subjects rated stinging, pain and discomfort at the site using a 100 mm visual analogue scale (VAS), one for each individual sensation, immediately after dosing and at 2, 5 and 10 minutes following topical application. Subjects provided a description of the sensations experienced following application of each test article. The subjects responses, measured in mm, were tabulated for each post-dosing assessment for each test sited.

[2] = Crystallization of lidocaine in formulation with time; assay type: physicochemical; details: lidocaine base formulation; water concentration greater than about 40% w/w
From the text: In this experiment, the water concentration in L504 was maximized in order to develop a more benign vehicle with reduced chance of irritation.

Row | SMILES | Subjective Stinging Score, mean ([1]; 2 Minute after application) [mm] | Subjective Stinging Score, mean ([1]; 5 Minute after application) [mm] | Subjective Stinging Score, mean ([1]; 10 Minute after application) [mm] | Subjective Stinging Score, mean ([1]; Immediate after application) [mm] | Subjective Stinging Score, mean ([1]; Maximum score) [mm] | stinging response in the stinging test (in words) ([1]; comparison with water application or LidHCL115a base formulation) | crystallization of lidocaine in solution with time [2]
1 | CC(C)O [70% Isopropanol, Isopropyl Alcohol] | 3.31 | 1.87 | 1.00 | 10.84 | 12.13 | immediate stinging response is severe, followed by a rapid fall in pain | 
2 | CCN(CC)CC(=O)Nc1c(C)cccc1C [lidocaine, Lidocaine base] |  |  |  |  |  |  | tended to crystallized with time
